These results are taken from article PMC8151276, “An Integrated Approach toward NanoBRET Tracers for Analysis of GPCR Ligand Engagement” (Molecules, 2021).

The target of the assay is T1, GRM8 (Homo sapiens, UniProt O00222).
T1 construct: purchased Promega (in-house HiBiT-GPCR construct library, NanoBRET)
The assay is described as follows: NanoBRET screen HiBiT-GRM8 in HEK293. It counts as binding. As for the experimental part:
Each tracer candidate was screened across the entire library of HiBiT-GPCR constructs using NanoBRET as the detection modality. As depicted in Figure 4A, the specificity of interactions was evaluated through decrease in BRET due to competitive displacement of a bound tracer by excess parental compound. Each tracer was analyzed for binding to each HiBiT-GPCR fusion in the absence and in the presence of competing parental compound. Briefly, HEK293 cells were transfected with HiBiT-GPCR constructs diluted into promoterless DNA to reduce expression and maximize translocation to the cell surface. Each tracer candidate was then screened at concentrations of 1 μM and 0.1 μM across cells expressing these fusions. Cells were treated for 1.5 h with tracer either alone or in the presence of 20 μM competing parental compound (i.e., control). BRET was measured upon addition of purified LgBiT and subsequent complementation with HiBiT genetically fused to a GPCR. The specificity of interactions was assessed through a decrease in BRET signal due to competitive displacement of the bound tracer. To further gauge the robustness of these interactions, the fold response over the control (i.e., BRETtracer/BRETcontrol) was calculated. We chose a 1.5-fold response, which translates to ≥7-fold signal over noise as the minimal threshold required to score an interaction as positive. […]. Below we highlight the screening results obtained for our exemplary fluorescent tracers based on Clozapine, Amitriptyline and AZD1283.
HiBiT-GPCR DNA constructs were diluted in 10 mM Tris pH 8 to a final concentration of 0.01 μg/μL, arrayed in 96-well plates and stored at −20 °C. For transfection, HEK293 cells were suspended in Opti-MEM (without phenol red) supplemented with 2% fetal bovine serum (Seradigm) and 100 units/mL penicillin–streptomycin (Gibco) at a final concentration of 220,000 cells/mL and dispensed into white 96-well plates at 90 μL/well. Subsequent transfections and screens were carried using an Agilent Bravo Automated Liquid Handling Platform. First, the 96-well HiBiT DNA arrays were diluted 25-fold in Opti-MEM (without serum or phenol red) to a final concentration of 0.0004 μg/μL and 20 μL of the diluted DNAs were transferred into new 96-well plates. Next, promoterless carrier DNA (1 μg/μL) was diluted 25-fold (0.04 μg/μL) and then dispensed into the diluted arrays at 20 μL/well. Following brief mixing, Viafect transfection reagent (Promega) diluted 16-fold into Opti-MEM was dispensed into the plates at 40 μL/well. After mixing by pipetting, plates were incubated for 10 min on the pipetting station deck. The DNA-transfection reagent complexes were then added to plates containing cells. To facilitate the screen, 10 μL of DNA-transfection reagent complexes were added in duplicates to the top 4 and bottom 4 rows, resulting in two identical 48-well arrays per plate. Plates with transfected cells were incubated for 18–20 h at 37 °C/5% CO2. A screen of each tracer across the entire library using two different concentrations requires duplicate plates of transfected cells. Depending on the number of tracers being screened, transfections can be scaled up using the same ratios. The next day, for each tracer, four 20× screening solutions in tracer dilution buffer (Promega) were prepared: two duplicates at final concentration of 20 μM and two duplicates at a final concentration of 2 μM. A competing unmodified compound was added to one of each duplicate at a final concentration of 400 μM. The four resulting solutions were diluted 4-fold in Opti-MEM without serum or phenol red to generate 5× solutions (5 µM and 0.5 µM tracer +/− 100 μM competing compound). To screen the library, a BioTek MultiFlo FX liquid dispenser was used to dispense 22.5 µL of tracer solution to the top 4 rows and 22.5 µL tracer + competing compound solution to the 4 bottom rows. Plates were briefly mixed on an orbital shaker and incubated for 1.5 h at room temperature. […]
(In general: Bioluminescence resonance energy transfer reports proximity on the nanometre scale.)

T1 sequence (O00222 34-908): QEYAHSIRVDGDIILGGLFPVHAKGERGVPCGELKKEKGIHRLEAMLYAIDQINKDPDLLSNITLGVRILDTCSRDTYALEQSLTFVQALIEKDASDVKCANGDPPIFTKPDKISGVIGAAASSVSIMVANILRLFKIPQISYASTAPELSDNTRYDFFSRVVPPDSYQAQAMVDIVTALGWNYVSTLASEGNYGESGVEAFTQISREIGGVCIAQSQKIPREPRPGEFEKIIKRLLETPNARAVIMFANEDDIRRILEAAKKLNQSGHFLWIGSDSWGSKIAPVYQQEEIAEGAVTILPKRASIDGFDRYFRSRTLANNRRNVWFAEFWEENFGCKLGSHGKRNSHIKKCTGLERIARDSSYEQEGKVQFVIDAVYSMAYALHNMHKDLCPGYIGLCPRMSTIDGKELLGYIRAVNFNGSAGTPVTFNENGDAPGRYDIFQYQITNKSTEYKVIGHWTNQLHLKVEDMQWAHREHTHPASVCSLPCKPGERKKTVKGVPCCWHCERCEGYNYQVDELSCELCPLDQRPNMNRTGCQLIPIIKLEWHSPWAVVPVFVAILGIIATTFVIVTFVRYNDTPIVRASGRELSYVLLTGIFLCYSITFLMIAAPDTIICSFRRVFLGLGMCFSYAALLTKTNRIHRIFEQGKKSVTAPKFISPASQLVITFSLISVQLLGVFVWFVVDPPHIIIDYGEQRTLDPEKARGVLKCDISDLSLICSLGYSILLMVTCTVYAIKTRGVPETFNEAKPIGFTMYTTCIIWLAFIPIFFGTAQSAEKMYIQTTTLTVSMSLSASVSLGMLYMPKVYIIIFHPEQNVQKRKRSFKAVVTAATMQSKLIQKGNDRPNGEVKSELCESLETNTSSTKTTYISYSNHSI

Regarding `COc1ccc2c(n1)c(CCNC(C)=O)cn2CCNC(=O)CCc1ccc2n1[B-](F)(F)[N+]1=C(c3ccc[nH]3)C=CC1=C2` [Azamelatonin-1-NB590], the “NanoBRET Fold Response” value by setting is: (0.1μM tracer) 0.96; (1μM tracer) 0.95. For the compound `CC(C)N(CC[C@H](c1ccccc1)c1cc(CCNC(=O)c2ccc(CNC(=O)CCc3ccc4n3[B-](F)(F)[N+]3=C(c5ccc[nH]5)C=CC3=C4)cc2)ccc1O)C(C)C` [Tolterodine-BZ-NB590], the “NanoBRET Fold Response” value is 1.02 (GRM8, tracer 0.1μM) and 1.03 (GRM8, tracer 1μM). For `O=C(CCc1ccc2n1[B-](F)(F)[N+]1=C(c3ccc[nH]3)C=CC1=C2)NCCOCCOCCNC(=O)OCCOCCN1CCN(C2=Nc3ccccc3Sc3ccccc32)CC1` [Quetiapine-a-2-NB590], in that order: 0.98 and 1.00. For `Cc1cc2c(s1)Nc1ccccc1N=C2N1CCN(CCCNC(=O)CCOCCOCCOCCOCCNC(=O)CCc2ccc3n2[B-](F)(F)[N+]2=C(c4ccc[nH]4)C=CC2=C3)CC1` [Olanzapine-a-2-NB590], in that order: 0.97 and 1.04. As to `O=C(CCc1ccc2n1[B-](F)(F)[N+]1=C(c3ccc[nH]3)C=CC1=C2)NCc1ccc(C(=O)NCCOCCOCCNCC(O)COc2cccc3ccccc23)cc1` (stereo not shown) [Propranolol-3-NB590], the “NanoBRET Fold Response” value is, setting by setting: (GRM8, 0.1μM) 0.99; (GRM8, 1μM) 1.00. As for `CN1CCN(C2=Nc3cc(Cl)ccc3N(CC(=O)NCCOCCOCCOCCOCCNC(=O)CCc3ccc4n3[B-](F)(F)[N+]3=C(c5ccc[nH]5)C=CC3=C4)c3ccccc32)CC1` [Clozapine-c-2-NB590], the “NanoBRET Fold Response” value stood at 0.97 (GRM8, 0.1μM tracer) and 1.07 (GRM8, 1μM tracer). With `O=C(CCc1ccc2n1[B-](F)(F)[N+]1=C(c3ccc[nH]3)C=CC1=C2)NCc1ccc(C(=O)NCCOCCC(=O)N[C@@H]2CC[C@@]3(O)[C@H]4Cc5ccc(O)c6c5[C@@]3(CCN4CC3CC3)[C@H]2O6)cc1` [Naltrexone-3-NB590], the “NanoBRET Fold Response” value by setting is: (GRM8, tracer 0.1μM) 1.07; (GRM8, tracer 1μM) 0.93. For `CC(C)N(CC[C@H](c1ccccc1)c1cc(CCNC(=O)CCOCCOCCOCCOCCNC(=O)CCc2ccc3n2[B-](F)(F)[N+]2=C(c4ccc[nH]4)C=CC2=C3)ccc1O)C(C)C` [Tolterodine-2-NB590], the “NanoBRET Fold Response” value stood at 1.00 (GRM8, tracer 0.1μM) and 1.31 (GRM8, tracer 1μM). For `Cc1nc2n(c(=O)c1CCN1CCC(c3noc4cc(F)ccc34)CC1)CCCC2OC(=O)NCCOCCOCCOCCOCCNC(=O)CCc1ccc2n1[B-](F)(F)[N+]1=C(c3ccc[nH]3)C=CC1=C2` (stereo not shown) [Risperidone-2-NB590], in that order: 1.00 and 1.04. `O=C(CCOCCOCCOCCOCCNC(=O)CCc1ccc2n1[B-](F)(F)[N+]1=C(c3ccc[nH]3)C=CC1=C2)NCCCN1CCN(C2=Nc3cc(Cl)ccc3Nc3ccccc32)CC1` [Clozapine-a-2-NB590]: the “NanoBRET Fold Response” value (GRM8, 0.1μM tracer) was 1.01 and the “NanoBRET Fold Response” value (GRM8, 1μM tracer) stood at 1.00.

`COc1ccc2[nH]c(-c3ccc(CNC(=O)CCOCCOCCOCCOCCNC(=O)CCc4ccc5n4[B-](F)(F)[N+]4=C(c6ccc[nH]6)C=CC4=C5)cc3)c(CCNC(C)=O)c2n1` [AzomelatoninICO9-2-NB590]: the “NanoBRET Fold Response” value by setting is: (0.1μM tracer) 0.98; (1μM tracer) 0.98. In the case of `CN1CCN(C2=Nc3cc(Cl)ccc3Nc3ccc(CNC(=O)CCOCCOCCOCCOCCNC(=O)CCc4ccc5n4[B-](F)(F)[N+]4=C(c6ccc[nH]6)C=CC4=C5)cc32)CC1` [Clozapine-b-2-NB590], the “NanoBRET Fold Response” value is recorded as 1.01 (GRM8, 0.1μM tracer) and 1.02 (GRM8, 1μM tracer). Regarding `COc1ccccc1N1CCN(CCCCN2C(=O)c3ccc(CNC(=O)CCOCCNC(=O)c4ccc(CNC(=O)CCc5ccc6n5[B-](F)(F)[N+]5=C(c7ccc[nH]7)C=CC5=C6)cc4)cc3C2=O)CC1` [NAN-190-3-NB590], the “NanoBRET Fold Response” value by setting is: (GRM8, tracer 0.1μM) 1.21; (GRM8, tracer 1μM) 0.96.

`N#CN=C(NCCCOc1cccc(CN2CCCCC2)c1)NCCNC(=O)CCOCCOCCOCCOCCNC(=O)CCc1ccc2n1[B-](F)(F)[N+]1=C(c3ccc[nH]3)C=CC1=C2` [Aminopotentidine-2-NB590]: the “NanoBRET Fold Response” value (GRM8, tracer 0.1μM) is 1.01 and the “NanoBRET Fold Response” value (GRM8, tracer 1μM) was 0.99. For `CN(C)CCC=C1c2ccccc2CCc2ccc(C(=O)NCCNC(=O)CCOCCOCCOCCOCCNC(=O)CCc3ccc4n3[B-](F)(F)[N+]3=C(c5ccc[nH]5)C=CC3=C4)cc21` [Amitriptyline-b-2-NB590], in that order: 1.01 and 0.99. With `COc1ccccc1N1CCN(CCCCN2C(=O)c3ccc(CNC(=O)CCOCCOCCOCCOCCNC(=O)CCc4ccc5n4[B-](F)(F)[N+]4=C(c6ccc[nH]6)C=CC4=C5)cc3C2=O)CC1` [NAN-190-2-NB590], the “NanoBRET Fold Response” value (GRM8, tracer 0.1μM) turned out to be 1.02. On to `O=C(CCOCCOCCOCCOCCNC(=O)CCc1ccc2n1[B-](F)(F)[N+]1=C(c3ccc[nH]3)C=CC1=C2)NCCCN1CCN(C2=Nc3ccccc3Oc3ccc(Cl)cc32)CC1` [Loxapine-a-2-NB590], for which the “NanoBRET Fold Response” value runs as follows: (GRM8, tracer 0.1μM) 1.01; (GRM8, tracer 1μM) 1.07.

As for `CCCn1c(=O)c2[nH]c(-c3ccc(OCC(=O)NCCNC(=O)CCOCCNC(=O)c4ccc(CNC(=O)CCc5ccc6n5[B-](F)(F)[N+]5=C(c7ccc[nH]7)C=CC5=C6)cc4)cc3)nc2n(CCC)c1=O` [XAC-3-NB590], the “NanoBRET Fold Response” value is, setting by setting: (GRM8, tracer 0.1μM) 0.99; (GRM8, tracer 1μM) 1.04. With `CCOC(=O)c1cc(C#N)c(N2CCC(C(=O)NS(=O)(=O)Cc3ccccc3/C=C/C(=O)NCCNC(=O)CCc3ccc4n3[B-](F)(F)[N+]3=C(c5ccc[nH]5)C=CC3=C4)CC2)nc1C` [AZD1283-1-NB590], the “NanoBRET Fold Response” value reads like this: (GRM8, 0.1μM) 0.99; (GRM8, 1μM) 1.01.
